Values joined by “and” are separate entries in the source; they are usually repeats but may differ in a detail not shown here. Equal values may be shown once. Toxic doses and inconclusive results are not listed. No stated cut-off is given here; in the data, active means T/C of 150% or more; inactive means T/C below 125%.
Tested on: L1210 leukemia ip in BDF1 mice, survival T/C
Assay: NCI In Vivo Anticancer Drug Screen. Data for tumor model L1210 Leukemia (intraperitoneal) in B6D2F1 (BDF1) mice
Conditions: endpoint: mean survival time, higher = longer survival
Procedure, shortened: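 Tumor cells were implanted, animals were treated, and survival was followed. The result divides the treated measurement by the vehicle-control measurement.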

[1] = dose: 100.0 mg/kg/injection, schedule: Q01DX009 (ip), vehicle: Klucel (hydroxypropylcellulose) (HPC)
[2] = dose: 200.0 mg/kg/injection, schedule: Q01DX009 (ip), vehicle: Klucel (hydroxypropylcellulose) (HPC)
[3] = dose: 100.0 mg/kg/injection, schedule: Q01DX001 (ip), vehicle: carboxymethylcellulose (CMC)
[4] = dose: 200.0 mg/kg/injection, schedule: Q01DX001 (ip), vehicle: carboxymethylcellulose (CMC)
[5] = dose: 100.0 mg/kg/injection, schedule: Q01DX001 (ip), vehicle: saline
[6] = dose: 200.0 mg/kg/injection, schedule: Q01DX001 (ip), vehicle: saline
[7] = dose: 400.0 mg/kg/injection, schedule: Q01DX001 (ip), vehicle: saline
[8] = dose: 100.0 mg/kg/injection, schedule: Q01DX001 (ip), vehicle: Klucel (hydroxypropylcellulose) (HPC)
[9] = dose: 200.0 mg/kg/injection, schedule: Q01DX001 (ip), vehicle: Klucel (hydroxypropylcellulose) (HPC)
[10] = dose: 12.5 mg/kg/injection, schedule: Q01DX009 (ip), vehicle: Klucel (hydroxypropylcellulose) (HPC)
[11] = dose: 25.0 mg/kg/injection, schedule: Q01DX009 (ip), vehicle: Klucel (hydroxypropylcellulose) (HPC)
[12] = dose: 50.0 mg/kg/injection, schedule: Q01DX009 (ip), vehicle: Klucel (hydroxypropylcellulose) (HPC)
[13] = dose: 100.0 mg/kg/injection, schedule: Q04DX003 (ip), vehicle: Klucel (hydroxypropylcellulose) (HPC)
[14] = dose: 200.0 mg/kg/injection, schedule: Q04DX003 (ip), vehicle: Klucel (hydroxypropylcellulose) (HPC)
[15] = dose: 400.0 mg/kg/injection, schedule: Q01DX009 (ip), vehicle: Klucel (hydroxypropylcellulose) (HPC)
[16] = dose: 400.0 mg/kg/injection, schedule: Q04DX003 (ip), vehicle: Klucel (hydroxypropylcellulose) (HPC)
[17] = dose: 400.0 mg/kg/injection, schedule: Q01DX001 (ip), vehicle: carboxymethylcellulose (CMC)

Measured: T/C

COC(=O)C(C)(C)Br
inactive: dose: 100.0 mg/kg/injection, schedule: Q01DX009 (ip), vehicle: saline sonified 94 % of control | dose: 200.0 mg/kg/injection, schedule: Q01DX009 (ip), vehicle: saline sonified 100 % of control | dose: 400.0 mg/kg/injection, schedule: Q01DX009 (ip), vehicle: saline sonified 100 % of control

CCCCCC[n+]1cccc(C#N)c1
inactive: dose: 18.75 mg/kg/injection, schedule: Q01DX009 (ip), vehicle: saline 95 % of control | dose: 37.5 mg/kg/injection, schedule: Q01DX009 (ip), vehicle: saline 95 % of control | dose: 75.0 mg/kg/injection, schedule: Q01DX001 (ip), vehicle: saline 113 % of control | dose: 75.0 mg/kg/injection, schedule: Q01DX009 (ip), vehicle: saline 94 % of control | dose: 75.0 mg/kg/injection, schedule: Q04DX003 (ip), vehicle: saline 97 % of control | dose: 150.0 mg/kg/injection, schedule: Q01DX001 (ip), vehicle: saline 95 % of control | dose: 150.0 mg/kg/injection, schedule: Q04DX003 (ip), vehicle: saline 101 % of control | dose: 300.0 mg/kg/injection, schedule: Q01DX001 (ip), vehicle: saline 100 % of control

CCOC(=O)c1ccc(NC(=O)Nc2ccc(F)cc2)cc1
inactive: [1] 90 % of control | [2] 90 % of control

CC(C)(CCCCC(C)(C)NC(=O)Nc1ccc(Cl)c(Cl)c1)NC(=O)Nc1ccc(Cl)c(Cl)c1
inactive: [3] 92 % of control | [4] 87 % of control

O=S(=O)(O)CCS
inactive: [5] 94 % of control | [6] 105 % of control | [7] 100 % of control

O=c1[nH]c(Cc2ccccc2)c([N+](=O)[O-])c(=O)[nH]1
inactive: dose: 50.0 mg/kg/injection, schedule: Q01DX001 (ip), vehicle: Klucel (hydroxypropylcellulose) (HPC) 94 % of control | [8] 103 % of control | [9] 97 % of control

CNCc1ccccc1C(O)c1ccc(Cl)cc1 (configuration not stated)
inactive: dose: 3.12 mg/kg/injection, schedule: Q01DX009 (ip), vehicle: Klucel (hydroxypropylcellulose) (HPC) 98 % of control | dose: 6.25 mg/kg/injection, schedule: Q01DX009 (ip), vehicle: Klucel (hydroxypropylcellulose) (HPC) 96 % of control | [10] 96 % of control | [11] 94 % of control | dose: 25.0 mg/kg/injection, schedule: Q04DX003 (ip), vehicle: Klucel (hydroxypropylcellulose) (HPC) 97 % of control and 98 % of control | [12] 102 % of control | dose: 50.0 mg/kg/injection, schedule: Q04DX003 (ip), vehicle: Klucel (hydroxypropylcellulose) (HPC) 94 % of control | [1] 86 % of control | [13] 104 % of control | [14] 122 % of control

CC(C)CC(=O)/C(CC(C)C)=N/O
inactive: dose: 50.0 mg/kg/injection, schedule: Q01DX001 (ip), vehicle: saline 96 % of control | [5] 104 % of control | [6] 96 % of control | [7] 96 % of control

O=C(N/N=C\c1ccccc1C(=O)O)c1ccco1
inactive: dose: 100.0 mg/kg/injection, schedule: Q01DX001 (ip), vehicle: other 87 % of control | dose: 200.0 mg/kg/injection, schedule: Q01DX001 (ip), vehicle: other 93 % of control | dose: 400.0 mg/kg/injection, schedule: Q01DX001 (ip), vehicle: other 90 % of control

O=C(NCCCOc1ccccc1)NCCc1ccc(Cl)c(Cl)c1
inactive: dose: 100.0 mg/kg/injection, schedule: Q01DX001 (ip), vehicle: gum acacia 99 % of control | dose: 200.0 mg/kg/injection, schedule: Q01DX001 (ip), vehicle: gum acacia 94 % of control | dose: 400.0 mg/kg/injection, schedule: Q01DX001 (ip), vehicle: gum acacia 91 % of control

Clc1nccnc1C(Cl)(Cl)Cl
inactive: dose: 50.0 mg/kg/injection, schedule: Q01DX009 (ip), vehicle: other 92 % of control | dose: 100.0 mg/kg/injection, schedule: Q01DX009 (ip), vehicle: other 95 % of control

NC(N)=NCCCC(NC(=O)OCc1ccccc1)C(=O)O (configuration not stated)
inactive: [1] 106 % of control and 94 % of control | [13] 94 % of control and 97 % of control | [2] 109 % of control and 91 % of control | [14] 86 % of control and 99 % of control | [15] 97 % of control and 87 % of control | [16] 92 % of control

COc1cc(C2CC(C)=C(C)CC2C(=O)O)cc(OC)c1OC (configuration not stated)
inactive: dose: 100.0 mg/kg/injection, schedule: Q04DX003 (ip), vehicle: saline with Tween-80 92 % of control | dose: 200.0 mg/kg/injection, schedule: Q04DX003 (ip), vehicle: saline with Tween-80 97 % of control | dose: 400.0 mg/kg/injection, schedule: Q04DX003 (ip), vehicle: saline with Tween-80 96 % of control

CC(NC(=O)c1cnc2ccccc2n1)C(=O)NCC(=O)O (configuration not stated)
inactive: [3] 93 % of control | [4] 89 % of control | [17] 94 % of control

Cc1cc2c(=S)nc(N)[nH]c2nc1C
inactive: dose: 100.0 mg/kg/injection, schedule: Q01DX Z (ip), vehicle: methylcellulose (MC) 105 % of control | dose: 200.0 mg/kg/injection, schedule: Q01DX Z (ip), vehicle: methylcellulose (MC) 103 % of control

ICC1CCC(CI)CC1 (configuration not stated)
inactive: [3] 102 % of control | [4] 102 % of control | [17] 102 % of control

O=C(O)CSc1cc(Cl)ccc1Cl
inactive: [10] 102 % of control | [11] 100 % of control | [12] 106 % of control and 121 % of control | [1] 104 % of control and 92 % of control | dose: 100.0 mg/kg/injection, schedule: Q04DX002 (ip), vehicle: Klucel (hydroxypropylcellulose) (HPC) 104 % of control | [2] 105 % of control | dose: 200.0 mg/kg/injection, schedule: Q04DX002 (ip), vehicle: Klucel (hydroxypropylcellulose) (HPC) 110 % of control

Cc1c(C(=O)c2ccc3c(c2)OCO3)ccc2c1OCO2
inactive: [3] 100 % of control | [4] 100 % of control | [17] 96 % of control

S=c1[nH]ccn1-c1ccccc1
inactive: [3] 103 % of control | [4] 110 % of control | [17] 101 % of control

N\C([S-])=N/N=C\C(=N/N=C(\N)[S-])C(O)C(O)C(O)CO.[Pd+2] (configuration not stated)
inactive: dose: 100.0 mg/kg/injection, schedule: Q04DX003 (ip), vehicle: saline 93 % of control | dose: 200.0 mg/kg/injection, schedule: Q04DX003 (ip), vehicle: saline 91 % of control

CCOc1ccccc1/C=N\N=C(N/N=C/c1ccccc1OCC)N/N=C/c1ccccc1OCC
inactive: dose: 60.0 mg/kg/injection, schedule: Q01DX Z (oral), vehicle: saline 91 % of control | dose: 120.0 mg/kg/injection, schedule: Q01DX Z (oral), vehicle: saline 100 % of control | dose: 240.0 mg/kg/injection, schedule: Q01DX Z (oral), vehicle: saline 95 % of control | dose: 480.0 mg/kg/injection, schedule: Q01DX Z (oral), vehicle: saline 95 % of control

Clc1cccc(/C=C2\c3cc(Cl)ccc3-c3c(Cl)cc(Cl)cc32)c1
inactive: [8] 96 % of control | [1] 106 % of control | [13] 97 % of control | [9] 93 % of control | [2] 98 % of control | [14] 101 % of control | dose: 400.0 mg/kg/injection, schedule: Q01DX001 (ip), vehicle: Klucel (hydroxypropylcellulose) (HPC) 93 % of control | [15] 98 % of control | [16] 101 % of control

CCCC(NC(=O)C(C)Br)C(=O)O (configuration not stated)
inactive: dose: 100.0 mg/kg/injection, schedule: Q01DX009 (ip), vehicle: saline with Tween-80 88 % of control | dose: 200.0 mg/kg/injection, schedule: Q01DX009 (ip), vehicle: saline with Tween-80 98 % of control | dose: 400.0 mg/kg/injection, schedule: Q01DX009 (ip), vehicle: saline with Tween-80 95 % of control

CCCC(=O)NC(=S)Nc1ccccc1
inactive: dose: 75.0 mg/kg/injection, schedule: Q01DX001 (ip), vehicle: carboxymethylcellulose (CMC) 98 % of control

CCCCOC(=O)C1(C)OC1c1ccccc1 (configuration not stated)
inactive: dose: 100.0 mg/kg/injection, schedule: Q04DX002 (ip), vehicle: saline 101 % of control | dose: 200.0 mg/kg/injection, schedule: Q04DX002 (ip), vehicle: saline 89 % of control | dose: 400.0 mg/kg/injection, schedule: Q04DX002 (ip), vehicle: saline 101 % of control

CCCCS(=O)c1nc2ccccc2s1 (configuration not stated)
inactive: dose: 100.0 mg/kg/injection, schedule: Q04DX002 (ip), vehicle: other 88 % of control | dose: 200.0 mg/kg/injection, schedule: Q04DX002 (ip), vehicle: other 91 % of control

Reference: PubChem BioAssay AID248 (DTP/NCI, 2004)
